Measurements: ChEMBL document CHEMBL1139986, “Synthesis and biodistribution of 8-iodo-11-(4-methylpiperazino)-5H-dibenzo[b,e][1,4]-diazepine: Iozapine” (Bioorg Med Chem Lett, 2007)

Experiments:
Conditions in all cases: in vivo
[1] = species on record: Oryctolagus cuniculus; experiment: Biodistribution in rabbit whole body at 20 MBq after 20.0 hrs; assay type: ADME, organism-based
[2] = tested on: Lung; experiment: Biodistribution in rabbit lung at 20 MBq; assay type: ADME, organism-based, Oryctolagus cuniculus
[3] = species on record: Oryctolagus cuniculus; experiment: Biodistribution in rabbit whole body at 20 MBq; assay type: ADME, organism-based
[4] = species on record: Oryctolagus cuniculus; experiment: Biodistribution in rabbit whole body at 20 MBq after 0.5 hrs; assay type: ADME, organism-based
[5] = species on record: Oryctolagus cuniculus; experiment: Biodistribution in rabbit whole body at 20 MBq after 1 hr; assay type: ADME, organism-based
[6] = species on record: Oryctolagus cuniculus; experiment: Biodistribution in rabbit whole body at 20 MBq after 1.5 hrs; assay type: ADME, organism-based
[7] = species on record: Oryctolagus cuniculus; experiment: Biodistribution in rabbit whole body at 20 MBq after 2.0 hrs; assay type: ADME, organism-based
[8] = species on record: Oryctolagus cuniculus; experiment: Biodistribution in rabbit whole body at 20 MBq after 2.5 hrs; assay type: ADME, organism-based
[9] = species on record: Oryctolagus cuniculus; experiment: Biodistribution in rabbit whole body at 20 MBq after 3.0 hrs; assay type: ADME, organism-based
[10] = tested on: Lung; experiment: Biodistribution in rabbit lung at 20 MBq after 0.5 hrs; assay type: ADME, organism-based, Oryctolagus cuniculus
[11] = tested on: Lung; experiment: Biodistribution in rabbit lung at 20 MBq after 1 hr; assay type: ADME, organism-based, Oryctolagus cuniculus
[12] = tested on: Lung; experiment: Biodistribution in rabbit lung at 20 MBq after 1.5 hrs; assay type: ADME, organism-based, Oryctolagus cuniculus
[13] = tested on: Lung; experiment: Biodistribution in rabbit lung at 20 MBq after 2.0 hrs; assay type: ADME, organism-based, Oryctolagus cuniculus
[14] = tested on: Lung; experiment: Biodistribution in rabbit lung at 20 MBq after 2.5 hrs; assay type: ADME, organism-based, Oryctolagus cuniculus
[15] = tested on: Lung; experiment: Biodistribution in rabbit lung at 20 MBq after 3.0 hrs; assay type: ADME, organism-based, Oryctolagus cuniculus
[16] = tested on: Lung; experiment: Biodistribution in rabbit lung at 20 MBq after 20.0 hrs; assay type: ADME, organism-based, Oryctolagus cuniculus
[17] = tested on: Thyroid gland; experiment: Biodistribution in rabbit thyroid at 20 MBq; assay type: ADME, organism-based, Oryctolagus cuniculus
[18] = tested on: Thyroid gland; experiment: Biodistribution in rabbit thyroid at 20 MBq after 0.5 hrs; assay type: ADME, organism-based, Oryctolagus cuniculus
[19] = tested on: Thyroid gland; experiment: Biodistribution in rabbit thyroid at 20 MBq after 1 hr; assay type: ADME, organism-based, Oryctolagus cuniculus
[20] = tested on: Thyroid gland; experiment: Biodistribution in rabbit thyroid at 20 MBq after 1.5 hrs; assay type: ADME, organism-based, Oryctolagus cuniculus
[21] = tested on: Thyroid gland; experiment: Biodistribution in rabbit thyroid at 20 MBq after 2.0 hrs; assay type: ADME, organism-based, Oryctolagus cuniculus
[22] = tested on: Thyroid gland; experiment: Biodistribution in rabbit thyroid at 20 MBq after 2.5 hrs; assay type: ADME, organism-based, Oryctolagus cuniculus
[23] = tested on: Thyroid gland; experiment: Biodistribution in rabbit thyroid at 20 MBq after 3.0 hrs; assay type: ADME, organism-based, Oryctolagus cuniculus
[24] = tested on: Thyroid gland; experiment: Biodistribution in rabbit thyroid at 20 MBq after 20.0 hrs; assay type: ADME, organism-based, Oryctolagus cuniculus
[25] = tested on: Brain; experiment: Biodistribution in rabbit brain at 20 MBq; assay type: ADME, organism-based, Oryctolagus cuniculus
[26] = tested on: Brain; experiment: Biodistribution in rabbit brain at 20 MBq after 0.5 hrs; assay type: ADME, organism-based, Oryctolagus cuniculus
[27] = tested on: Brain; experiment: Biodistribution in rabbit brain at 20 MBq after 1 hr; assay type: ADME, organism-based, Oryctolagus cuniculus
[28] = tested on: Brain; experiment: Biodistribution in rabbit brain at 20 MBq after 1.5 hrs; assay type: ADME, organism-based, Oryctolagus cuniculus
[29] = tested on: Brain; experiment: Biodistribution in rabbit brain at 20 MBq after 2.0 hrs; assay type: ADME, organism-based, Oryctolagus cuniculus
[30] = tested on: Brain; experiment: Biodistribution in rabbit brain at 20 MBq after 2.5 hrs; assay type: ADME, organism-based, Oryctolagus cuniculus
[31] = tested on: Brain; experiment: Biodistribution in rabbit brain at 20 MBq after 3.0 hrs; assay type: ADME, organism-based, Oryctolagus cuniculus
[32] = tested on: Brain; experiment: Biodistribution in rabbit brain at 20 MBq after 20.0 hrs; assay type: ADME, organism-based, Oryctolagus cuniculus

Work on CN1CCN(C2=Nc3cc([123I])ccc3Nc3ccccc32)CC1 [[123I]I-OZAPINE] yielded a Drug uptake [1] of 54.6 %ID, a Drug uptake [2] of 14.7 %ID and a Drug uptake [3] of 100 %ID. It also gave a Drug uptake [4] of 98.7 %ID, a Drug uptake [5] of 95.8 %ID and a Drug uptake [6] of 97.7 %ID. The Drug uptake [7] was 97.4 %ID, the Drug uptake [8] was 99.4 %ID and the Drug uptake [9] was 96.9 %ID. It also gave a Drug uptake [10] of 10.7 %ID, a Drug uptake [11] of 10.4 %ID and a Drug uptake [12] of 8.1 %ID. The Drug uptake [13] was 7.6 %ID, the Drug uptake [14] was 6 %ID and the Drug uptake [15] was 6.4 %ID. The Drug uptake [16] was 2.3 %ID, the Drug uptake [17] was 1.5 %ID and the Drug uptake [18] was 1.4 %ID. The Drug uptake [19] was 1.4 %ID, the Drug uptake [20] was 1.3 %ID and the Drug uptake [21] was 1.4 %ID. For the same molecule, the Drug uptake [22] was 1.2 %ID, the Drug uptake [23] was 1.4 %ID and the Drug uptake [24] was 1.9 %ID. The Drug uptake [25] was 2.2 %ID, the Drug uptake [26] was 2.2 %ID and the Drug uptake [27] was 1.8 %ID. It also gave a Drug uptake [28] of 1.6 %ID, a Drug uptake [29] of 1.5 %ID and a Drug uptake [30] of 1.5 %ID. The Drug uptake [31] was 1.2 %ID and the Drug uptake [32] was 0.7 %ID.
